Results published in ChEMBL document CHEMBL5465560, “Selectivity Literature for EUbOPEN Chemogenomic Library” (2024).
Each block holds one molecule with its values, some of them ahead of it.

Columns and labels:
[1] = biological target: T1, Histone-lysine N-methyltransferase EHMT2 (Homo sapiens) (UniProt Q96KQ7); experiment: Selectivity interaction (Methyltransferase screen (radiometric assays, panel of 8 PRMTs, 21 protein lysine methyltransferases, 3 DNA methyltransferases, and one RNA methyltransferase)) EUB0000272b EHMT2
T1 sequence (whole entry): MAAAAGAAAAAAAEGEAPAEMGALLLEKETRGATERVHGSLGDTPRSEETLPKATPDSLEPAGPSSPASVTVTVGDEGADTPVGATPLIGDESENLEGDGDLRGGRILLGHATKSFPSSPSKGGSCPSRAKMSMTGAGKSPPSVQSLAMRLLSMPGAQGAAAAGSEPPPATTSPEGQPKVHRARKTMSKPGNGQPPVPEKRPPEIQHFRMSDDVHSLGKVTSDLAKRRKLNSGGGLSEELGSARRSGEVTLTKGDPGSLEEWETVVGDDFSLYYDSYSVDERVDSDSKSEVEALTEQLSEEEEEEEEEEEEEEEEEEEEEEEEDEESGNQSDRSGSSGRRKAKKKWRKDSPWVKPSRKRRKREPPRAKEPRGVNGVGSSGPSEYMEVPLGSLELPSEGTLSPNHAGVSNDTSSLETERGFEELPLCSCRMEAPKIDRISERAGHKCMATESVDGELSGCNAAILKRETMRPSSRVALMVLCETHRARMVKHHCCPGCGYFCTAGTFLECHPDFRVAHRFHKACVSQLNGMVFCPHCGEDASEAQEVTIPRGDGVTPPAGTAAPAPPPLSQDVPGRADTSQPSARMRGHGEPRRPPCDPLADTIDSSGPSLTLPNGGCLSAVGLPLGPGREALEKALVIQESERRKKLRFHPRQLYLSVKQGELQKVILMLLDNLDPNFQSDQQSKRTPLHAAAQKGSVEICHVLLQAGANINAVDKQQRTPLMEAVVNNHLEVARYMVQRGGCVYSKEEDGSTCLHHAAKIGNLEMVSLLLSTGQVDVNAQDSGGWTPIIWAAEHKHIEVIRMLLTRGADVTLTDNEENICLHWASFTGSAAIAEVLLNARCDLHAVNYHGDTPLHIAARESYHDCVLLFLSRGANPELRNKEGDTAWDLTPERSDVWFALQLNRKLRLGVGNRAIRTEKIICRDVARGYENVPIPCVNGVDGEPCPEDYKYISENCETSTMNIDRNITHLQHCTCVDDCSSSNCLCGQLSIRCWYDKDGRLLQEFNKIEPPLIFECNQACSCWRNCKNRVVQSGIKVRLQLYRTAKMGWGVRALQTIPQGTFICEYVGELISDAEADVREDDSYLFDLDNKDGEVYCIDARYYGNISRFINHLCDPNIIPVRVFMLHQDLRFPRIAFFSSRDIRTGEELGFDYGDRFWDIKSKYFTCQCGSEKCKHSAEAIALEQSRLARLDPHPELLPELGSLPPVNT

[2] = biological target: T2, 3-phosphoinositide-dependent protein kinase 1 (Homo sapiens) (UniProt O15530); experiment: Selectivity interaction (KinomeScan (DiscoverX)) EUB0000666a PDPK1; conditions: at 10 µM
T2 sequence (whole entry): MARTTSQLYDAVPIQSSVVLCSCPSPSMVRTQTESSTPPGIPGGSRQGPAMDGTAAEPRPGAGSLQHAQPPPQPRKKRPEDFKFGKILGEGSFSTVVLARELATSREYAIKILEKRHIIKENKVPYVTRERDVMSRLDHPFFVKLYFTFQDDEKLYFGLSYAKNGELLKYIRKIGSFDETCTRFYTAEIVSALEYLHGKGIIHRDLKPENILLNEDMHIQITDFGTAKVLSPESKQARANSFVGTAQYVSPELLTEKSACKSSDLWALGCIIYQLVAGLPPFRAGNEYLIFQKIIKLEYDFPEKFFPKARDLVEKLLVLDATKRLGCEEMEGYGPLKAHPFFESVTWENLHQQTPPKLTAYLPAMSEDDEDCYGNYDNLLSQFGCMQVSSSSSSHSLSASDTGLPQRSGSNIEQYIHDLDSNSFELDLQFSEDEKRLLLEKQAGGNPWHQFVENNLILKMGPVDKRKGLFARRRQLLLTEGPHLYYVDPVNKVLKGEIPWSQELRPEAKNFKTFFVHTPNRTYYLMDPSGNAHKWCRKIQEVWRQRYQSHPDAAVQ

[3] = biological target: Mast/stem cell growth factor receptor Kit (Homo sapiens, UniProt P10721)
[4] = biological target: T3, Serine/threonine-protein kinase TAO1 (Homo sapiens) (UniProt Q7L7X3); experiment: Selectivity interaction (Kinase panel (KiNativ target engagement assay in Jurkat cells)) EUB0001635a TAOK1; format: cell-based; conditions: Selectivity number of off-targets 0.0, Selectivity number of targets 233.0, Source Knowledge https://www.sciencedirect.com/science/article/pii/S2451945619300674?via%3Dihub, at 1 µM
T3 sequence (whole entry): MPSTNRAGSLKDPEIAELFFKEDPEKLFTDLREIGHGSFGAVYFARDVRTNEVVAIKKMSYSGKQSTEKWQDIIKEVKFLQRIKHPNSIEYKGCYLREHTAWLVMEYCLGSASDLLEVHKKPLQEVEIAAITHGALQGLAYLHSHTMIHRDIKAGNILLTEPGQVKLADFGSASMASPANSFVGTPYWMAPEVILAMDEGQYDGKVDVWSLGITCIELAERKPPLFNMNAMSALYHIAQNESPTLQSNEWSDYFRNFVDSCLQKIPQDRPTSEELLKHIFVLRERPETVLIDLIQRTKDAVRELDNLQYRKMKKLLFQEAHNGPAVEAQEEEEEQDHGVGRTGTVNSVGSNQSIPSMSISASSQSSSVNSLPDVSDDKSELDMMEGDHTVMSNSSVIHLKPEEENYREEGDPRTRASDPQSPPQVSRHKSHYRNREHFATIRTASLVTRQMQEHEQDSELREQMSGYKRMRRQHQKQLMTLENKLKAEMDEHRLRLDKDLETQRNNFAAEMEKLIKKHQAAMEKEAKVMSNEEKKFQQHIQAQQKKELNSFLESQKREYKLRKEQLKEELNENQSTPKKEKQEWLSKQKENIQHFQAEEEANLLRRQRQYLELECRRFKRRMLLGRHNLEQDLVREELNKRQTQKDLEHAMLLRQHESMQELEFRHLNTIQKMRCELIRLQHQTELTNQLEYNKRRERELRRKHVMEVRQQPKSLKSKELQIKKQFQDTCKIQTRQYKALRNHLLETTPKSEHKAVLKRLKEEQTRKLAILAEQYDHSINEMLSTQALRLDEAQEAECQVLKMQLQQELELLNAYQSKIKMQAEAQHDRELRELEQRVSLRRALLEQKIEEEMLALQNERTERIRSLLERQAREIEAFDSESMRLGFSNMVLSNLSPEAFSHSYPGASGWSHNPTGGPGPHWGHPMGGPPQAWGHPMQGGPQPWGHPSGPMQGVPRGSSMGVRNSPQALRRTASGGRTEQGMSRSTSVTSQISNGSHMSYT

Mast/stem cell growth factor receptor Kit, sequence (P10721 whole entry): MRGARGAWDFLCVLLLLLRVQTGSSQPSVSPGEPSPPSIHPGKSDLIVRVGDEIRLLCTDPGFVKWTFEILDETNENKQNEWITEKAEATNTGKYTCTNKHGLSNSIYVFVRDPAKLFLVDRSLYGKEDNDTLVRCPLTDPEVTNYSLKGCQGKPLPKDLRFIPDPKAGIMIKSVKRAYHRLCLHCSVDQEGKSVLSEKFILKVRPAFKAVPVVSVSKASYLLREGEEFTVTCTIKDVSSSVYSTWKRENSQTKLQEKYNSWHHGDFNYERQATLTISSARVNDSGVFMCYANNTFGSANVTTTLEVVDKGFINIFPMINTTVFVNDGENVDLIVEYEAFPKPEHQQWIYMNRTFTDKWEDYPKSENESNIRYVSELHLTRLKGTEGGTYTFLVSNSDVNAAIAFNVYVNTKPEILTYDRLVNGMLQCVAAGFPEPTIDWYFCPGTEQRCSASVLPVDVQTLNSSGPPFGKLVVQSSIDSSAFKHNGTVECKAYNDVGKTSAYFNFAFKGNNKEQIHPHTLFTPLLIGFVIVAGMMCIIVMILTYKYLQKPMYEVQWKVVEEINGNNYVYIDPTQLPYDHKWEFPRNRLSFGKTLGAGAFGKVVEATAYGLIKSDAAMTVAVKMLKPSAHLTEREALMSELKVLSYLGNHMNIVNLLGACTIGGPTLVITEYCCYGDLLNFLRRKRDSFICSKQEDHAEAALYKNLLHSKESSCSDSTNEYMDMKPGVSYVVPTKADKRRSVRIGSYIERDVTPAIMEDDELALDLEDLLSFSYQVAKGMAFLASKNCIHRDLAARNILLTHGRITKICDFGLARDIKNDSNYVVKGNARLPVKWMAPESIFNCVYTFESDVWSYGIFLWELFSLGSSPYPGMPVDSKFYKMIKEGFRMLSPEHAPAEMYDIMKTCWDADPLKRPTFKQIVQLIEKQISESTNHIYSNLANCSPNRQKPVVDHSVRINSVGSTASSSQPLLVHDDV

% of activity ([1]; at 1 µM): 95.7% | % of activity ([1]; at 10 µM): 98.3%
Structure (SMILES): Cc1cc(C)cc([C@H]2c3cc(C)ccc3NC(=O)CN2C(=O)c2ccc(Br)s2)c1

Structure (SMILES): O=C(NOC[C@H](O)CO)c1ccc(F)c(F)c1Nc1ccc(I)cc1F
% of control [2]: 71%

IC50 [3]: > 10 µM
Structure (SMILES): CCc1cccc(CC)c1NC(=O)c1nn(C)c2c1CCc1cnc(Nc3ccc(C(=O)NC4CCN(C)CC4)cc3OC(F)(F)F)nc1-2

Structure (SMILES): C=CC(=O)Nc1ccc(C(=O)Nc2[nH]nc3c2CN(C(=O)N[C@H](CN(C)C)c2ccccc2)C3(C)C)cc1
% of engagement [4]: -0.7%
